Six compounds from ChEMBL document CHEMBL3045919, “Disease-controlling effect of a novel fungicide pyribencarb against Botrytis cinerea” (J Pestic Sci, 2010) can be followed below.

Converted amounts (≈) assume the structure as drawn. The source made the active and inactive calls. No cut-off for these calls is given here.

Broadly, the EC50 is the concentration at which the effect is half-maximal. In general, MIC refers to the lowest concentration that inhibits growth of the organism.

Series [1] relates to Botrytis cinerea. The experiment in a line: Antifungal activity against Botryotinia fuckeliana in Cucumber seedlings assessed as reduction of gray mold diseases compound spraying was performed 3 hr prior to inoculation by preventive effect assay. Type of series: functional, organism-based.
Series [2] has as its system Botrytis cinerea. Put plainly: Antifungal activity against Botryotinia fuckeliana in Kidney bean assessed as Kidney bean gray mold diseased pods in field trials at 500 ug/ml 3 applications at 9 days intervals (reference value: 21%). Type of series: functional.
Series [3] has as its system Botrytis cinerea. Put plainly: Antifungal activity against Botryotinia fuckeliana in Eggplant seedlings assessed as Eggplant gray mold diseased flowers and fruits in field trials at 200 ug/ml 3 applications at 7 days intervals (reference value: 52.7%). The class given is functional.
The test system of series [4] is Botrytis cinerea. Put plainly: Antifungal activity against Botryotinia fuckeliana in Eggplant seedlings assessed as Eggplant gray mold diseased flowers and fruits in field trials at 500 ug/ml 3 applications at 7 days intervals (reference value: 52.7%). The class given is functional.
The subject of series [5] is Botrytis cinerea. Put plainly: Antifungal activity against Botryotinia fuckeliana in Kidney bean assessed as Kidney bean gray mold diseased pods in field trials at 200 ug/ml 3 applications at 9 days intervals (reference value: 21%). Type of series: functional.
Series [6] concerns Botrytis cinerea. The experiment in a line: Antifungal activity against Botryotinia fuckeliana in Kidney bean assessed as Kidney bean gray mold diseased pods in field trials at 100 ug/ml 3 applications at 9 days intervals (reference value: 21%). The class given is functional.
The test system of series [7] is Botrytis cinerea. Put plainly: Antifungal activity against Botryotinia fuckeliana in Eggplant seedlings assessed as Eggplant gray mold diseased flowers and fruits in field trials at 100 ug/ml 3 applications at 7 days intervals (reference value: 52.7%). The class given is functional.
In another series the test system is Cucumis sativus. Put plainly: Translaminar activity against kidney bean gray mold assessed as drug transport in Phaseolus vulgaris (kidney bean) from adaxial to abaxial at 100 to 200 ug/ml measured after 3 days. Type of series: ADME, organism-based. To be noted: in vivo, 72 h.
Series [8] concerns Botrytis cinerea. The experiment in a line: Antifungal activity against Botryotinia fuckeliana in Cucumber seedlings cotyledon stage assessed as suppression of gray mold diseases measured after 7 days by rain fastness activity assay. The class given is functional, organism-based.
For series [9], the system named is Botrytis cinerea. The experiment in a line: Antifungal activity against Botryotinia fuckeliana in Cucumber seedlings assessed as reduction of gray mold diseases. Type of series: functional, organism-based.
Series [10] relates to Botrytis cinerea. The experiment in a line: Antifungal activity against Botryotinia fuckeliana in Cucumber seedlings assessed as reduction gray mold diseases at 3 ug/ml compound spraying was performed 3 hr prior to inoculation by preventive effect assay. The arrangement: scale not given: the % may be the effect or the level left. Type of series: functional.
Series [11] has as its system Botrytis cinerea. Put plainly: Antifungal activity against Botryotinia fuckeliana in Cucumber seedlings assessed as reduction of gray mold diseases at 3 ug/ml compound spraying was performed 48 hr after inoculation by lesion development inhibitory assay. Type of series: functional. Set-up: scale not given: the % may be the effect or the level left.
Series [12] has as its system Botrytis cinerea. The experiment in a line: Antifungal activity against Botryotinia fuckeliana in Cucumber seedlings assessed as reduction of gray mold diseases at 3 ug/ml compound spraying was performed 24 hr after inoculation by curative effect assay. Set-up: scale not given: the % may be the effect or the level left. Type of series: functional.

`O=C(Nc1ccccc1-c1ccc(Cl)cc1)c1cccnc1Cl` [BOSCALID]: the EC50 in the series on Botrytis cinerea [1] came out at 0.8 mg/L (≈ 2.33 µM).

Take `CC1(C(=O)Nc2ccc(O)c(Cl)c2Cl)CCCCC1` [FENHEXAMID]: the EC50 with Botrytis cinerea [1] came out at 2.13 mg/L (≈ 7.05 µM).

Take `O=[N+]([O-])c1cc(C(F)(F)F)c(Cl)c([N+](=O)[O-])c1Nc1ncc(C(F)(F)F)cc1Cl` [FLUAZINAM]: in the series on Botrytis cinerea [2], the Activity was 7.8%.

For `N#Cc1c[nH]cc1-c1cccc2c1OC(F)(F)O2` [FLUDIOXONIL], in the series on Botrytis cinerea [3], the Activity came out at 16.8%.

`CC12CC1(C)C(=O)N(c1cc(Cl)cc(Cl)c1)C2=O` (stereo not drawn) [PROCYMIDONE]: the results for the Activity in the series on Botrytis cinerea [2] and in the series with Botrytis cinerea [4] were 4.6% and 12.3%, respectively.

As to `COC(=O)NCc1cc(/C(C)=N/OCc2cccc(C)n2)ccc1Cl` [Pyribencarb], the Activity is listed as 3.7% with Botrytis cinerea [5]; 5.3% with Botrytis cinerea [6]; 3.4% in the series with Botrytis cinerea [3]; 9.8% in the series on Botrytis cinerea [7]; 72.1% in the series with Botrytis cinerea [10]; 88.5% in the series on Botrytis cinerea [11]. Besides, in the series with Botrytis cinerea [12], the Activity turned out to be 80.4%. In addition, the Drug transport result in the series on Cucumis sativus is “Active”. Also, in the series on Botrytis cinerea [8], the inhibition entry was “Active”. Moreover, the figures for the EC50 in the series on Botrytis cinerea [9] and in the series with Botrytis cinerea [1] were 0.006 mg/L (≈ 0.0166 µM) and 0.55 mg/L (≈ 1.52 µM), respectively. Besides, in the series with Botrytis cinerea [9], the MIC stood at 0.1 mg/L (≈ 0.276 µM).
